| Structure (SMILES) | melting point |
| --- | --- |
| COc1ccc(-c2cc(C(F)(F)F)nc(N)n2)cc1 | 191 to 194 °C |
| CCCCCCCCOC(=O)CCCCC | -28 °C |
| COc1ccc(C(=O)C2=NOC3C(=O)N(c4ccc(Br)cc4)C(=O)C23)cc1 (configuration not stated) | 124 °C |
| COc1cc(/C=C/c2cc(C)cc(OC)c2O)ccc1O | 124 °C |
| COc1cccc(OC)c1C(=O)O | 187 to 190 °C |
| Clc1cccc(Cl)c1-c1nnn[nH]1 | 203 °C |
| N#C/C(=N\Nc1c(Br)cc(Br)cc1Br)c1nc2ccccc2[nH]1 | 270 °C |
| O=C(O)c1cccc(-n2cncn2)c1 | 262 to 268 °C |
| O=[N+]([O-])c1c(Br)sc(Br)c1[N+](=O)[O-] | 136 °C |
| CC1(C)C2CCC1(C)C(O)C2 (configuration not stated) | 214 °C |
| CCN(CC)CCNC(=O)c1cc(S(C)(=O)=O)ccc1OC | 124 °C |
| Nc1ccc(CCc2ccc(N)cc2)cc1 | 137 °C |
| O=C(CS(=O)(=O)c1ccccc1)c1ccccc1 | 92 to 95 °C |
| Cc1cc(Cl)cc(Cl)c1S(N)(=O)=O | 168 to 170 °C |
| CCCCCCCCCCCCCCCCOc1ccc(C(=O)O)cc1 | 132 °C |
| CCOC(C)=NOc1ccc([N+](=O)[O-])cc1[N+](=O)[O-] | 112 °C |
| CCOC(=O)c1c(C=O)c(C)n(-c2ccccc2)c1C | 78 to 81 °C |
| CCCCCCCCCCCCN1c2ccccc2C(C)(C)C12C=Cc1cc([N+](=O)[O-])ccc1O2 (configuration not stated) | 109 °C |
| CC(C)C(c1ccccc1)C(C)C | -24.5 °C |
| N#CSC#N | 63.5 °C |
| Cc1ccc(Cn2ncc3c(N)ncnc32)cc1 | 222 °C |
| CC12CCC(CC(Br)c3ccccc3)(OC1=O)C2(C)C (configuration not stated) | 206 °C |
| N#C/C(=N/Nc1cc(Cl)ccc1Cl)c1nc(-c2ccccc2)cs1 | 133 °C |
| CCc1nnc(/N=N/c2c(-c3ccccc3)n(C)c3ccccc23)s1 | 221 °C |
| Cc1cc(C)n(N=Cc2ccccc2)c(=O)c1C#N | 194 to 195 °C |

| Structure (SMILES) | melting point |
| --- | --- |
| CCOP(=O)(OCC)On1nnc2ccccc2c1=O | 74 °C |
| O=C(Cl)C12CC3CC(CC(C3)C1)C2 | 51 °C |
| N=C(N)SCCCS(=O)(=O)O | 240 to 248 °C |
| CCCCCCCCCCOc1c(OC)cc(C(N)=O)cc1OC | 122 °C |
| NC(C(=O)O)C1=CCC=CC1 (configuration not stated) | 260 °C |
| O=Cc1cccc2cccc(C(=O)O)c12 | 160 to 167 °C |
| COCC(=O)c1ccccc1 | 8 °C |
| CCCCCCCCCCCCCCCCCCCCCCCCCCCCCC(=O)O | 93.6 °C |
| CCOC(=O)Cc1csc(N)n1 | 91 to 95 °C |
| O=[N+]([O-])c1cc(CCBr)c([N+](=O)[O-])cc1CCBr | 123 °C |
| NC(=O)c1ccco1 | 141 °C |
| Cn1cnc(C(=O)O)c1 | 245 °C |
| CC(=O)/C(=N\Nc1ccc(Cl)cc1)C(=O)C(F)(F)F | 124 °C |
| CC1(C)C(=O)NC1c1ccccc1 (configuration not stated) | 150 °C |
| c1ccc(-c2cccc(-c3ccccc3)c2)cc1 | 87 °C |
| Cc1ccc(C)c2ccccc12 | 7.6 °C |
| CC1(C(=O)O)CCC2(C)CCC3(C)C(=CC(=O)C4C5(C)CCC(OC(=O)CCC(=O)O)C(C)(C)C5CCC43C)C2C1 (configuration not stated) | 292 °C |
| Cc1noc(C)c1C#N | 46 to 48 °C |
| N#CC1(c2ccc(F)cc2Cl)CCCC1 | 49 to 52 °C |
| O=S(=O)(Cl)c1cccc2nsnc12 | 148 to 150 °C |
| COC(=O)C1C(=O)C(C(=O)OC)C2c3ccccc3C1C(C(=O)OC)C(O)C2C(=O)OC (configuration not stated) | 92.2 °C |
| Cc1cccc2c1Cc1ccccc1-2 | 85 °C |
| CCOC(=O)C1CSCCN1 (configuration not stated) | 118 to 121 °C |
| N#Cc1cn(C2CC2)c(=O)[nH]c1=O | 254 to 258 °C |
| O=C(c1ccccc1)c1ccc2c3c(cccc13)CC2 | 101 °C |

| Structure (SMILES) | melting point |
| --- | --- |
| NC(=S)c1ccc2c(c1)CCO2 | 145 to 155 °C |
| C=C(C)C(=O)OCC1CO1 (configuration not stated) | -82 °C |
| CC(=O)c1cc([N+](=O)[O-])c(Br)s1 | 105 to 106 °C |
| O=C(Nc1ccc(Br)cc1)c1c(O)cccc1O | 229 °C |
| Nc1cc2ccccc2cc1N | 199 °C |
| CCOc1ccccc1C=O | 21 °C |
| Cc1cc(C(=O)O)cc(O)n1 | 240 °C |
| COc1ccc(C(C)=O)cc1O | 89.5 °C |
| CCOc1ccc2cc(O)c(O)cc2c1 | 132 °C |
| C1SSCSSS1 | 60.5 °C |
| Cn1[nH]c(N)c2c(=O)ccnc1-2 | 218 °C |
| Nc1ccc(-n2cncn2)cc1 | 142 to 144 °C |
| NC1CC1 | -10 °C |
| Cc1cc(I)cc(C)c1O | 99 to 102 °C |
| Cc1c(Cl)ncnc1Cl | 58 °C |
| Cn1cncc1CC1COC(=O)C1C(O)c1ccccc1 (configuration not stated) | 179 °C |
| CC(=O)C=C(C)N1CCCC1 | 114 to 116 °C |
| C[Si](C)(C)O[Si](C)(C)O[Si](C)(C)O[Si](C)(C)C | -68 °C |
| Brc1cccc2c1Oc1cccc(Br)c1O2 | 207 °C |
| N#Cc1cnccc1/C=C/c1ccccc1 | 128 to 130 °C |
| COc1ccc2c(c1)CCc1ccc3c(c1-2)c(=O)n(-c1ccccc1)n3C | 162 °C |
| NC(=O)C1c2ccccc2CCc2ccccc21 | 194 °C |
| CC(=O)Oc1ccc(Br)cc1 | 21 °C |
| CC1=CC=CC2Cc3ccccc3C(=O)N12 (configuration not stated) | 98 °C |
| OC1CC(O)C(O)CO1 (configuration not stated) | 69 to 72 °C |

| Structure (SMILES) | melting point |
| --- | --- |
| FC12CC3CC(CC(C3)C1)C2 | 225 °C |
| CCOC(=O)C(C)=O | -50 °C |
| CN1CCN=C1C(C1=NCCN1C)C1=NCCN1C | 241 to 243 °C |
| O=C(C=Cc1ccccc1)C=Cc1ccccc1 | 111 °C |
| CCOc1c(Br)cc(Br)cc1C=O | 87 to 87.5 °C |
| Nc1ccc(CC(=O)O)cc1 | 200 °C |
| Cn1nc(C(=O)Cl)cc1-c1ccco1 | 60 to 61 °C |
| Cc1ccc(CS(=O)(=O)Cl)cc1 | 80 to 85 °C |
| Cc1cc(C(F)(F)F)c(C#N)c(=O)[nH]1 | 233 to 235 °C |
| CC(=O)CCc1oc2ccc(C)cc2c1-c1ccc(C)o1 | 76 °C |
| O=C(O)c1nc(Cl)ccc1Cl | 151 °C |
| COC(=O)c1cc(C(C)=O)ccc1O | 60 to 61 °C |
| O=C1NC(=O)C(c2ccccc2)(c2ccccc2)N1 | 295 °C |
| COC1C(C(O)CO)OC2OC3(CCCCC3)OC21 (configuration not stated) | 98 to 102 °C |
| CC(C)(C)OC(=O)N1CCC(C(N)=O)CC1 | 163 to 164 °C |
| O=C(O)C1CCN(c2nccc(C(F)(F)F)n2)CC1 | 140 to 142 °C |
| Cc1c(C)c(C)c(C=O)c(C)c1C | 146 to 148 °C |
| O=Cc1ccsc1 | -30 °C |
| COc1cc(C)c(Cl)cc1S(=O)(=O)Cl | 127 °C |
| CC(C)(C)NCC(O)COc1ccccc1C#N (configuration not stated) | 164 °C |
| BrCc1ccc(OC2CCOCC2)cc1 | 56 to 58 °C |
| CC(C)(C)OC(=O)N1CC(=O)C1 | 51 °C |

Source: a melting point compilation (Tetko et al.)
